Measurements published in publication PMC6161897, “The novel NADPH oxidase 4 selective inhibitor GLX7013114 counteracts human islet cell death in vitro” (PLoS ONE, 2018).
pIC50: −log10 of the molar value.

Columns and labels:
all Nox enzymes = conditions: cited from earlier work
XO = conditions: cited from earlier work
Nox2 = conditions: cited from earlier work
caspase 3 = assay: Cleaved caspase 3 immunofluorescence in human islets; type: cell-based; conditions: palmitate + high glucose 24h, same inhibitor concentrations as Fig 3
[1] = cited from earlier work
human islet = conditions: cited from earlier work
Nox4 = molecular target: T1, Nox4 (Homo sapiens, UniProt Q9NPH5); conditions: cited from earlier work
T1 construct: host or cells: HEK 293 (CJ, constitutive) and T-REx-293 (tetracycline-inducible)
T1 sequence (Q9NPH5 1-578): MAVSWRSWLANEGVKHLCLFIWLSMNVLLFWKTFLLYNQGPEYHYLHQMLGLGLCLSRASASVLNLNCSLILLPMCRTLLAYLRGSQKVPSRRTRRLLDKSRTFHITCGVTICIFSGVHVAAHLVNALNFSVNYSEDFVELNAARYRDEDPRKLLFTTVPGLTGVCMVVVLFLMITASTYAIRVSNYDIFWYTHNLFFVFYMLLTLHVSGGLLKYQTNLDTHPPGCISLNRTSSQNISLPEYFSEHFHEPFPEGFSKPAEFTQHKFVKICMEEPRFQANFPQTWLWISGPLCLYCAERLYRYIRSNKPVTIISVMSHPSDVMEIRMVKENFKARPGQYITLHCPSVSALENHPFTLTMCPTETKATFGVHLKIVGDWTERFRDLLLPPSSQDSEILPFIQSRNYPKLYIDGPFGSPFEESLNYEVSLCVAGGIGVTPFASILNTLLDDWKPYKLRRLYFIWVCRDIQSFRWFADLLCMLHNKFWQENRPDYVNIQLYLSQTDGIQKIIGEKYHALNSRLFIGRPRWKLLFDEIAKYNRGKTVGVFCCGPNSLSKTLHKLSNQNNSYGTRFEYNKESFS
T1 sequence (P13498 2-195 partner limits assumed): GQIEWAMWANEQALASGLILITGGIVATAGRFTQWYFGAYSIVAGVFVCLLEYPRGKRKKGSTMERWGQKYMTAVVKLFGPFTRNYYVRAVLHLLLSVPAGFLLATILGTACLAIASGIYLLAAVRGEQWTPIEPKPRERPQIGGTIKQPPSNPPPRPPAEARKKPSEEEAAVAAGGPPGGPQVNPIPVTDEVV

human islet cells [2] = assay: ROS production in human islets (DCF fluorescence); type: cell-based; conditions: palmitate 1.5 mM + 20 mM glucose 24h, inhibitor during last 3h: DPI 0.2 μM, Dapsone 10 μM, GLX351322 10 μM, GLX481372 6 μM
DUOX1 = tested on: DUOX1; design: method as in PMID 24053146; conditions: cited from earlier work
human islet cells [3] = assay: Human islet cell viability (PI/bisbenzimide ratio); type: cell-based; conditions: for human islet cell death, cytokines: IL-1β + IFN-γ 20 ng/ml each; for human islet cell death, cytokines / human islet cell death, high glucose + palmitate: 48h, ML171 2 μM, Phox-I2 2 μM, GLX7013114 1 μM; for human islet cell death, high glucose + palmitate: palmitate 1.5 mM + 20 mM glucose
Procedure: […] Cell viability was measured by staining cells with propidium iodide (20 μg/ml) and bisbenzimide (5 μg/ml) for 20 min at 37°C. The medium was replaced with PBS and the red and blue fluorescence was detected using a Nikon Eclipse fluorescence TE2000-U microscope (Nikon Instruments, Amsterdam, the Netherlands). The ratio of red to blue was taken as a relative measure of cell death (necrosis and late apoptosis) and was quantified using the Image J software (National Institutes of Health).

EndoC-βH1 cells = assay: EndoC-βH1 cell viability (PI, flow cytometry); type: cell-based, human; conditions: inhibitor 0.2, 0.5 or 1.0 μM; for cell death rates in EndoC-βH1 cells exposed to cytokines: 2-day incubation; for cell death rates in EndoC-βH1 cells exposed to high glucose + palmitate: 24h incubation
Procedure: […] Cells were then vital stained with 10 μg/ml propidium iodide (PI) for 10 min at 37°C. Free-floating cells and cells attached to the culture dish were washed separately with PBS, pooled and examined by flow cytometry using a FACSCalibur (BD Biosciences, Franklin Lakes, NJ, USA). In each experimental group 10000 cells were examined and gated by PI intensity and FSC signal. The percentage of dead cells was analyzed using […] software (BD Biosciences).

Row | Structure (SMILES) | XO inhibition (XO) | pIC50 (Nox2) | activation of caspase 3 in human islets (caspase 3) | cell death rates in EndoC-βH1 cells exposed to cytokines (EndoC-βH1 cells) | cell death rates in EndoC-βH1 cells exposed to high glucose + palmitate (EndoC-βH1 cells) | human islet cell death, cytokines (human islet cells [3]) | human islet cell death, high glucose + palmitate (human islet cells [3]) | further results
1 | c1ccc2c(c1)[I+]c1ccccc1-2 [DPI, diphenyleneiodoniumchloride] | Yes | […] | reduced activation of caspase 3 | – | – | – | – | IC50 values for all Nox enzymes (all Nox enzymes): nM range
2 | CCOC(=O)c1c(NC(=O)CN2CCN(C(=O)c3ccco3)CC2)sc2c1CCC2 [GLX351322] | Inactive | 4.40 | reduced activation of caspase 3 | – | – | – | – | high-fat diet-induced glucose intolerance [1]: amelioration of high-fat diet-induced glucose intolerance; high glucose-induced inhibition of human islet insulin release and survival (human islet): protected against high glucose-induced inhibition of human islet insulin release and survival
3 | Nc1ccc(S(=O)(=O)c2ccc(N)cc2)cc1 [dapsone] | – | – | reduced activation of caspase 3 | – | – | – | – | inhibition of expression/activity of Nox4 (Nox4): μM concentrations; human islet ROS production (DCF/DAPI ratio) (human islet cells [2]): reduced human islet ROS production; inhibition of expression/activity of DUOX1 (DUOX1): μM concentrations; human islet cell viability (PI and Bisbenzimide ratio) (human islet cells [3]; palmitate + high glucose 24h, inhibitor throughout: DPI 0.2 μM, Dapsone 10 μM, GLX351322 10 μM, GLX481372 6 μM): improved viability
4 | O=[N+]([O-])c1cccc(C2Nc3ccc([N+](=O)[O-])cc3C3C=CCC32)c1 (stereo not shown) [Phox-I2] | – | 6.00 | – | failed to affect cell death rates | failed to affect cell death rates | failed to protect | partially protected | –
5 | CC(=O)c1ccc2c(c1)Nc1ccccc1S2 [ML171] | – | […] | – | failed to affect cell death rates | failed to affect cell death rates | failed to reduce human islet cell death | failed to reduce human islet cell death | pIC50 (XO; read-out: XO inhibition): 5.26
